pEC50: −log10 of the molar value.
molecular target: hTREM2 (Homo sapiens, UniProt Q9NZC2); assay: TREM2 activity by cellular Syk phosphorylation (AlphaScreen/AlphaLISA) in TREM2/DAP12-HEK cells, used for Examples 1-305; format: cell-based; set-up: expressed in transfected cells; settings: HEK293 Cells
Text: In vitro Measurement of Triggering Receptor Expressed on Myeloid Cells 2 activity using cellular phosphorylation of Spleen Tyrosine Kinase (“Syk”) Assays used for Examples 1-305
Pharmacological measurements of TREM2 signaling through DAP12 were made with TREM2 and DAP12 overexpressing HEK293 cells stable cell lines that had been single-cell cloned (“TREM2/DAP12-HEK”). The readout of the TREM2 signaling utilized Perkin Elmer AlphaScreen/AlphaLISA technology monitoring the phosphorylation levels of the Syk kinase. TREM2/DAP12-HEK cell lines were cultured in DMEM-F12 (Corning 10-092-CM) supplemented with 1X Penicillin/Streptomycin (Corning 30-002-CI), 1X GlutaMAX (Gibco 35050-061), and 10% Fetal Bovine Serum (Life Technologies 10099) referred to as “HEK Culture Medium”. Suspensions of TREM2/DAP12-HEK cells were prepared in HEK Culture Medium and dispensed into 384-well poly-D-lysine coated microplates (Corning 354661) at a density of 20,000 cells/well using a Multidrop Combi peristaltic microplate dispenser (Thermo), 25 μL volume of cell suspension/well. Plates containing cells were then incubated for 20 hours in a humidified cell culture incubator at 37° C. with 5% CO2 (Thermo). After incubation, culture medium was removed from all wells of each microplate and replaced with 20 μL of “Assay Buffer” comprised of DMEM-F12 (Corning 10-092-CM) supplemented with 1X Penicillin/Streptomycin (Corning 30-002-CI) and 0.1% Pluronic F-68 Polyol (MP Biomedical 092750049) using a Bravo 384-well pipette-based liquid handling system (Agilent). Assay Buffer contained diluted test articles (in 1% final DMSO concentration for compounds) or 100 nM anti-human/mouse TREM2 antibody (R&D Systems MAB17291) as a positive control, or 100 nM or rat IgG2B isotype Ab as a negative control (R&D Systems MAB0061). The plates were incubated with test articles and controls for 45 minutes at room temperature and then the medium was aspirated/removed from each well of the plates. A Multidrop Combi peristaltic liquid handler (Thermo) was used to dispense 15 μL/well of “Cell Lysis Immunoassay Buffer”. The Cell Lysis Immunoassay Buffer contained M-PER Mammalian Protein Extraction Reagent (Pierce/ThermoFisher 78505), 1X Halt Phosphatase Inhibitor Cocktail (ThermoFisher #78427), 0.1875 nM anti-phospho-Syk (Tyr525/526) (C87C1) rabbit mAb (Cell Signaling Technologies catalog #2710), and 1.5 nM biotinylated Mouse anti-human Syk (4D10) antibody (BD Biosciences, catalog #624008). Plates were incubated for 1 hour at room temperature after the addition of the Cell Lysis Immunoassay Buffer. The Multidrop Combi liquid handler was used to dispense 15 μL of AlphaScreen Acceptor Bead Solution containing 7.5 μg/mL anti-rabbit IgG (Fc specific) AlphaLISA Acceptor Beads (Perkin Elmer AL104R) in 1X Immunoassay buffer (Perkin Elmer AL000F) to each well of the microplates. The plates were incubated for 2 hours at room temperature. Following the incubation with the AlphaLISA Acceptor Bead Solution, a Multidrop Combi liquid handler (Thermo) was used to dispense 15 μL of AlphaScreen Donor Bead Solution containing 30 μg/mL of AlphaScreen Streptavidin Donor beads (Perkin Elmer 6760002B) in 1X Immunoassay buffer (Perkin Elmer AL000F) to each well of the microplates. Microplates were incubated for 2 hours protected from light sources as the AlphaScreen reagents are light sensitive. Once the final incubation was completed, an AlphaScreen signal was acquired from the donor and acceptor beads using an Envision high throughput multi-modal microplate reader (Perkin Elmer) calibrated to the plate type with the AlphaScreen mirror and filter-set in 384-well mode, 680 nanometer excitation wavelength. The total measurement time per well was 550 milliseconds with a 180 millisecond excitation time. […]

Sequence of hTREM2 (Q9NZC2 19-230): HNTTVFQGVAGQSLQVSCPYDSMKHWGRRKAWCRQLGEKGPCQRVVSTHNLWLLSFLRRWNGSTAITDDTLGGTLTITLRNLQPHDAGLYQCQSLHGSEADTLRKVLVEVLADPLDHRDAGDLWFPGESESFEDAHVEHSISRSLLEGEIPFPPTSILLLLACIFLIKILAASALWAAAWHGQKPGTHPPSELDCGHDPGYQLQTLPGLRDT
Sequence of hTREM2 (O43914 22-113 partner): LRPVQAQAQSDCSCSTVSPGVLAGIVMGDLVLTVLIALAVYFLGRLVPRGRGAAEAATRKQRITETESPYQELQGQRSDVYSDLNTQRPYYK

Q: How did the pEC50 turn out when `Cc1cc([C@H]2CN(c3nc4nc(C)c(C)cc4c([C@H]4C[C@H](C(F)(F)F)C4)n3)CCO2)ccn1` [Example 115, 6,7-dimethyl-2-((2S)-2-(2-methyl-4-pyridinyl)-4-morpholinyl)-4-(trans-3-(trifluoromethyl)cyclobutyl)pyrido[2,3-d]pyrimidine] was run?
A: ≥ 7.30

Q: And the “hTREM2 Emax” value?
A: ++ (Emax>100 and ≤150)

Q: What does the source list for `Cc1nc2cc([C@H]3CCO[C@H](c4cnn(C)c4)C3)nc(-c3ccc(Cl)cc3F)c2nc1C` (single isomer, unassigned) [Example 194]?
A: pEC50: 5.52 to 6.30; hTREM2 Emax: ++++ (Emax>250)

Q: How did the pEC50 turn out when `Cc1ncc([C@H]2CN(c3nc(-c4ccc(C(F)(F)F)nc4)c4nc(C)c(C)nc4n3)CCO2)cn1` [Example 294, (S)-4-(6,7-dimethyl-4-(6-(trifluoromethyl)pyridin-3-yl)pteridin-2-yl)-2-(2-methylpyrimidin-5-yl)morpholine] was run?
A: 5.52 to 6.30

Q: What about the “hTREM2 Emax” value of the same molecule?
A: +++ (Emax>150 and ≤250)

Q: Which results are given for `Cc1ccc2c(-c3ccc(Cl)cc3F)nc(N3CCO[C@@H](c4cnc(C)nc4)C3)nc2n1` (single isomer, unassigned) [Example 90]?
A: pEC50: 6.30 to 7.30; hTREM2 Emax: +++ (Emax>150 and ≤250)

Q: How did the pEC50 turn out when `Cc1nc2nc(N3CCO[C@@H](c4cnn(C)c4)C3)nc(C3CC4(C3)CC(F)(F)C4)c2nc1C` [Example 46, 4-(6,6-difluorospiro[3.3]heptan-2-yl)-6,7-dimethyl-2-((2S)-2-(1-methyl-1H-pyrazol-4-yl)-4-morpholinyl)pteridine] was run?
A: ≥ 7.30

Q: And the “hTREM2 Emax” value?
A: +++ (Emax>150 and ≤250)

Q: With `Cc1cc([C@H]2CN(c3nc4nc(C)ccc4c([C@H]4C[C@H](C(F)(F)F)C4)n3)CCO2)ccn1` [Example 99, 7-methyl-2-((2S)-2-(2-methyl-4-pyridinyl)-4-morpholinyl)-4-(trans-3-(trifluoromethyl)cyclobutyl)pyrido[2,3-d]pyrimidine] as the molecule, how does the pEC50 read?
A: ≥ 7.30

Q: And the “hTREM2 Emax” value?
A: + (Emax>45 and ≤100)

Q: Which results are given for `Cc1cc2cc(N3CCO[C@@H](c4cnn(C)c4)C3)nc(-c3ccc(Cl)cc3F)c2nc1C` [Example 237, (S)-4-(8-(4-chloro-2-fluorophenyl)-2,3-dimethyl-1,7-naphthyridin-6-yl)-2-(1-methyl-1H-pyrazol-4-yl)morpholine]?
A: pEC50: 4.00 to 5.52; hTREM2 Emax: +++ (Emax>150 and ≤250)

Q: With `Cc1cc([C@@H]2C[C@@H](c3nc(-c4ccc(Cl)cc4F)c4ccc(C)nc4n3)CCO2)ccn1` (single isomer, unassigned) [Example 220] as the molecule, how does the pEC50 read?
A: 6.30 to 7.30

Q: And the “hTREM2 Emax” value?
A: +++ (Emax>150 and ≤250)

Q: With `Cc1ccc(-c2cc([C@H]3CCO[C@@H](c4cnn(C)c4)C3)nc3nc(C)c(C)nc23)c(F)c1` (single isomer, unassigned) [Example 190] as the molecule, how does the pEC50 read?
A: ≥ 7.30

Q: What about the “hTREM2 Emax” value of the same molecule?
A: +++ (Emax>150 and ≤250)

Q: `Cc1ccc(-c2nc([C@H]3CCO[C@@H](c4ccnc(C)c4)C3)nc3nc(C)c(C)cc23)c(F)c1` (single isomer, unassigned) [Example 222] was tested. Which pEC50 did it give?
A: ≥ 7.30

Q: And the “hTREM2 Emax” value?
A: ++++ (Emax>250)

Q: How did the pEC50 turn out when `Cc1nc2nc(N3CCO[C@@H](c4cnn(C)c4)C3)nc(-c3ccc(F)c(F)c3F)c2nc1C` [Example 61, 6,7-dimethyl-2-((2S)-2-(1-methyl-1H-pyrazol-4-yl)-4-morpholinyl)-4-(2,3,4-trifluorophenyl)pteridine] was run?
A: ≥ 7.30

Q: And the “hTREM2 Emax” value?
A: +++ (Emax>150 and ≤250)

Q: What does the source list for `Cc1nc2nc(N3CCO[C@@H](c4cnn(C)c4)C3)nc(-c3cc(F)c(F)cc3F)c2nc1C` [Example 62, 6,7-dimethyl-2-((2S)-2-(1-methyl-1H-pyrazol-4-yl)-4-morpholinyl)-4-(2,4,5-trifluorophenyl)pteridine]?
A: pEC50: ≥ 7.30; hTREM2 Emax: ++++ (Emax>250)

Q: How did the pEC50 turn out when `Cc1cc([C@H]2CN(c3nc(C45CC(C(F)(F)F)(C4)C5)c4ccc(C)nc4n3)CCO2)ccn1` [Example 102, 7-methyl-2-((2S)-2-(2-methyl-4-pyridinyl)-4-morpholinyl)-4-(3-(trifluoromethyl)bicyclo[1.1.1]pentan-1-yl)pyrido[2,3-d]pyrimidine] was run?
A: ≥ 7.30

Q: What about the “hTREM2 Emax” value of the same molecule?
A: + (Emax>45 and ≤100)

Q: With `Cc1nc2nc(N3CCO[C@@H](c4cnn(C5CC5)c4)C3)nc([C@H]3C[C@H](C(F)(F)F)C3)c2nc1C` [Example 50, 2-((2S)-2-(1-cyclopropyl-1H-pyrazol-4-yl)-4-morpholinyl)-6,7-dimethyl-4-(trans-3-(trifluoromethyl)cyclobutyl)pteridine] as the molecule, how does the pEC50 read?
A: ≥ 7.30

Q: What about the “hTREM2 Emax” value of the same molecule?
A: +++ (Emax>150 and ≤250)

Q: With `CC(C)N1Cc2c(cc(N3CCO[C@@H](c4cnn(C)c4)C3)nc2-c2ccc(Cl)cc2F)C1=O` [Example 122, 4-(4-chloro-2-fluorophenyl)-6-((2S)-2-(1-methyl-1H-pyrazol-4-yl)-4-morpholinyl)-2-(2-propanyl)-2,3-dihydro-1H-pyrrolo[3,4-c]pyridin-1-one] as the molecule, how does the pEC50 read?
A: 5.52 to 6.30

Q: What about the “hTREM2 Emax” value of the same molecule?
A: +++ (Emax>150 and ≤250)

Q: How did the pEC50 turn out when `Cc1cnc2cc(N3CCO[C@@H](c4cnn(C)c4)C3)nc(-c3ccc(Cl)cc3F)c2n1` [Example 74, 5-(4-chloro-2-fluorophenyl)-3-methyl-7-((2S)-2-(1-methyl-1H-pyrazol-4-yl)-4-morpholinyl)pyrido[3,4-b]pyrazine] was run?
A: 6.30 to 7.30

Q: And the “hTREM2 Emax” value?
A: ++++ (Emax>250)

Q: What does the source list for `Cc1ccc(-c2nc(N3CCO[C@@H](c4ccnc(C)c4)C3)nc3nc(C)cnc23)c(F)c1` [Example 10, 4-(2-fluoro-4-methylphenyl)-7-methyl-2-((2S)-2-(2-methyl-4-pyridinyl)-4-morpholinyl)pteridine]?
A: pEC50: ≥ 7.30; hTREM2 Emax: +++ (Emax>150 and ≤250)

Q: `Cc1cc([C@H]2C[C@H](c3nc(-c4ccc(Cl)cc4F)c4ccc(C)nc4n3)CCO2)ccn1` (single isomer, unassigned) [Example 219] was tested. Which pEC50 did it give?
A: 6.30 to 7.30

Q: And the “hTREM2 Emax” value?
A: ++++ (Emax>250)

Q: `Cc1nc2cc([C@H]3CCO[C@@H](c4cnn(C5CC5)c4)C3)nc(-c3ccc(Cl)cc3F)c2nc1C` [Example 296, 5-(4-chloro-2-fluorophenyl)-7-((2R,4S)-2-(1-cyclopropyl-1H-pyrazol-4-yl)tetrahydro-2H-pyran-4-yl)-2,3-dimethylpyrido[3,4-b]pyrazine] was tested. Which pEC50 did it give?
A: 4.00 to 5.52

Q: `C[C@H]1CN(c2cc3c(c(-c4ccc(Cl)cc4F)n2)CN(C)C3=O)CCO1` [Example 118, 4-(4-chloro-2-fluorophenyl)-2-methyl-6-((2S)-2-methyl-4-morpholinyl)-2,3-dihydro-1H-pyrrolo[3,4-c]pyridin-1-one] was tested. Which pEC50 did it give?
A: 5.52 to 6.30

Q: And the “hTREM2 Emax” value?
A: + (Emax>45 and ≤100)

Q: How did the pEC50 turn out when `Cc1nc2nc(N3CCO[C@@H](c4cnn(C5CC5)c4)C3)nc([C@H]3C[C@H](C(F)F)C3)c2nc1C` [Example 48, 2-((2S)-2-(1-cyclopropyl-1H-pyrazol-4-yl)-4-morpholinyl)-4-(trans-3-(difluoromethyl)cyclobutyl)-6,7-dimethylpteridine] was run?
A: ≥ 7.30

Q: What about the “hTREM2 Emax” value of the same molecule?
A: ++ (Emax>100 and ≤150)

Q: With `COc1cc([C@H]2C[C@@H](c3nc(-c4ccc(Cl)cc4F)c4nc(C)c(C)nc4n3)CCO2)ccn1` (single isomer, unassigned) [Example 208] as the molecule, how does the pEC50 read?
A: ≥ 7.30

Q: And the “hTREM2 Emax” value?
A: +++ (Emax>150 and ≤250)

Q: `Cc1cnc2c(-c3ccc(Cl)cc3F)nc([C@H]3CCO[C@@H](c4cnn(C)c4)C3)cc2n1` (single isomer, unassigned) [Example 191] was tested. Which pEC50 did it give?
A: 6.30 to 7.30

Q: And the “hTREM2 Emax” value?
A: ++++ (Emax>250)

From patent US11884675B2, “Heterocyclic compounds as triggering receptor expressed on myeloid cells 2 agonists and methods of use” (AMGEN INC., priority 2020, dated 2024)
